This is an account of results in patent publication US9239334B2, “Fatty acid C16: 1N7-palmitoleate a lipokine and biomarker for metabolic status” (PRESIDENT AND FELLOWS OF HARVARD COLLEGE, priority 2008, dated 2016).

Experiment [1] relates to SCD-1, FAS and ELOVL6 expression in liver. As to the kind of experiment: Liver lipogenic gene expression after 6-hour lipid infusion. The class given is in vivo. Conditions: 6-hour infusion, compared to vehicle-infused mice. The text has this:
FIG. 5A-5E reflects the regulation of SCD-1 promoter activity in vivo. […] PUF: polyunsaturated fatty acid response element. FIG. 5B is the regulation of WT and mutant SCD-1 promoter activities by fatty acids. AA: arachidonic acid. FIG. 5C is the regulation of wild-type and mutant SCD-1 promoter activities by plasma lipids. Plasma lipids extracted from WT or FABP^−/− (DK) mice were used to treat FAO cells Infected with WT or mutant SCD-1 promoter-carrying adenoviruses and luciferase assays performed as described in the Examples. FIG. 5D presents the in vivo regulation of wild-type and mutant SCD-1 promoter activities. Luciferase assays were performed on liver tissues of WT or DK mice injected with WT or mutant SCD-1 reporter carrying adenoviruses. FIG. 5E is liver gene expression in mice infused with vehicle, TG:palmitate or TG:palmitoleate. *, p<0.05. […] INTRALIPID® fatty acid lipid infusion solution with 2 mM triglycerides:palmitate or palmitoleate were prepared using a previously described protocol with modifications (Stein et al., 1997). Briefly, lipids were dissolved in a solvent containing 5% glycerol and 0.72% phosphocholine in 0.9% saline, heated at 80° C. for 10 min, and then sonicated 1 min four times. For TG:palmitoleate, the heating was omitted to avoid oxidization of the lipids. Lipids stay in suspension for a week, so to prevent clogging the preparations must be vortexed well before loading the syringe and tubing. Seven days before lipid infusion, mice were anesthetized and an indwelling catheter inserted in the left internal jugular vein, then the animals were left to recover the following days. After overnight fasting, lipids were infused at a rate of 500 μl/kg/min for six hours. At the end of the infusion, insulin (1 U/Kg) was injected into mice via the infusion tubing and tissues were collected for subsequent gene expression and immunoblotting analyses. To determine serum FFA level during lipid infusion, blood was collected from mouse tails at different time intervals and spun down to collect plasma. Serum FFAs were determined using a commercial kit (Wako Chem.). TG:palmitate and TG:palmitoleate are difficult to dissolve at a concentration that are compatible with the infusion rate of hyperinsulinemic-euglycemic clamp study and yet maintain efficient delivery of these lipids. Therefore fatty acid: palmitoleate was used to infuse mice for clamp study. Palmitoleate was dissolved in saline containing 2% BSA (vehicle) at 15 mM with repeated sonications and was infused through the tubing at a rate of 3.3 μl/min for two hours. A standard hyperinsulinemic-euglycernic clamp was then performed as previously described (Furuhashi et al., 2007). Vehicle or palmitoleate solution was used to dissolve tracer ^3H-glucose and so lipid was also infused at 3.3 μl/min throughout the 4-hour period of clamp study.

Experiment [2] deals with insulin receptor, IRS-1, IRS-2 and AKT phosphorylation in liver. As to the kind of experiment: Insulin signaling in liver of lipid-infused mice (immunoblotting). The following applies: TG lipid infusion, compared to vehicle controls. The class given is in vivo. From the text:
(§1) FIGS. 7A-7G show data on the regulation of insulin signaling and glucose metabolism by palmitoleate. FIG. 7A is the basal and insulin-stimulated phosphorylation of insulin receptor (IR), insulin receptor substrate-1 (IRS-1) and -2 (IRS-2) and AKT in liver of mice infused with vehicle (Veh), TG:palmitoleate (C16:1n7) or TG:palmitate (C16). Representative blots are shown and quantifications on the right are averaged results of three mice in each treatment group. […] Representative blots are shown and quantifications on the right are averaged results of three mice in each treatment group.
(§2) The left panel presents the insulin-stimulated phosphorylation of insulin receptor and AKT in liver of mice infused with vehicle or palmitoleate. […] Mice were infused with vehicle or palmitoleate at 3.3 μl/min for six hrs, and insulin (1 U/Kg) was injected through the infusing tubing. Three minutes after insulin injection, tissues were collected and immunoblotting analyses were performed.
(§3) The present invention also provides for the regulation of insulin action by increased circulating palmitoleate. To study whether palmitoleate regulates systemic metabolic responses, lipid infusions were administered in conscious mice. Lipid infusion has been used widely to investigate the relationship between plasma FFAs and insulin resistance, but almost all studies using this protocol utilized preparations of natural lipid products containing a variety of fatty acids. Kim et al., 114 J. Clin. Invest. 823-27 (2004); Kim et al., 277 J. Biol. Chem. 32915-22 (2002); Yu et al., 277 J. Biol. Chem. 50230-36 (2002). […]
(§4) Samples of 200 μl serum were collected using heparin-coated glass tubes and spun at 13,000 g in a microcentrifuge to separate the plasma. […] Tissue protein lysates was separated with SDS-PAGE gels and phosphorylated or total proteins were detected with the following antibodies: phospho AKT Serine 473, AKT, insulin receptor, phospho-tyrosine (Santa Cruz Biotech.); IRS-1 and IRS-2 (Upstate); phospho-GSK and GSK (Cell Signaling Tech.); phospho-insulin receptor from (Calbiocbem). […]
A general note: Immunoblotting shows a protein as a band on a membrane.

Another experiment deals with T1, aP2 (Mus musculus, UniProt P04117).
T1 construct: from tissue; host or cells: epididymal fat pads of mice on high-fat diet (in vivo oral dosing)
T1 sequence (P04117 1-132): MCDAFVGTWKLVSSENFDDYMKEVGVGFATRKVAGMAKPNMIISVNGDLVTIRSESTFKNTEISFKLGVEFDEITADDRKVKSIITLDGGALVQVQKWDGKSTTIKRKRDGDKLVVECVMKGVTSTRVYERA
As to the kind of experiment: Lipogenic gene expression in adipose tissue of mice treated with aP2 inhibitor. The class given is in vivo. The following applies: WT mice on HFD, oral gavage 40 mg/kg/day for two months. The protocol:
FIGS. 6A-6D present data related to the regulation of lipogenic genes in adipose and liver of WT and FABP^−/− mice. […] Gene expression patterns in epididymal fat pad were determined by quantitative real-time PCR. FIG. 6B is regulation of lipogenic gene promoter activities by FABPs in differentiated adipocytes. […] Gene expressions in epididymal fat pads from mice treated with vehicle or aP2 inhibitor were determined with quantitative real-time PCR. […] relates to the differential regulation of lipogenic gene expression in adipose and liver tissues. Levels of the mRNAs in liver and epididymal fat pad from mice fed with high-fat diet were determined with quantitative real-time PCR. ACC1, acetyl-CoA carboxylase1; FAS, fatty acid synthase; SCD-1, stearoyl-CoA desaturase; ELOVL6, fatty acid elongase 6; DGAT1, acyl-CoA:diacylglycerol acyltransferase 1. *, p<0.05.
To directly address this, adipogenic cell lines from FABP−/−mice were differentiated them into adipocytes (FIG. 19). […] This observation agrees with that observed in adipose tissue of FABP-deficient mice. This pattern was tested in vivo in an alternative experimental system where aP2 function in mice is blocked through an orally administrated synthetic inhibitor. […] Furuhashi et al., 2007. […]

The subject of a further experiment is SCD-1 promoter. As to the kind of experiment: SCD-1 promoter-driven luciferase reporter in FAO hepatoma cells. The class given is cell-based, murine. The following applies: hepatocytes (FAO) treated with a single fatty acid, 300 μM. The protocol: This possibility was tested using several highly sensitive assays to probe the functional profile and activities of plasma lipids. SCD-1 was chosen as a target because it was determined previously that the suppression of hepatic SCD-1 activity is a major alteration in FABP-deficient mice under diet-induced or genetic obesity. Cao et al., 2006; Maeda et al., 2005. Hepatic SCD-1 expression is regulated by a variety of hormones and nutritional factors such as insulin, glucose, and polyunsaturated fatty acids (PUFAs). Ntambi & Miyazaki, 43 Prog. Lipid Res. 91-104 (2004). […] Chu et al., 26 Mol. Cell Biol. 6786-98 (2006); Ntambi, 40 J. Lipid Res. 1549-58 (1999). The 1.5 kb murine SCD-1 promoter was placed in front of a luciferase reporter and inserted into an adenovirus construct. FAO rat hepatoma cells infected with this adenovirus verified the responsiveness of this reporter to PUFA, consistent with previous observations (FIG. 15). Because this assay system was adapted to a microplate format, very small amounts of lipids were required for experimentation. This system allowed direct testing for the effects of lipids extracted from plasma of WT and FABP-deficient animals.
Lipids were extracted from whole plasma and applied to liver cells expressing the SCD-1 promoter reporter gene. […] To control for any difference in the amount of lipids extracted from plasma and to mimic the in vivo regulation of SCD-1 expression, mixtures of FFAs were generated with the same molar ratio detected in WT or FABP-deficient plasma lipids using the major fatty acids listed in FIG. 2C. […]
as §4

Experiment [3] relates to insulin receptor signaling in muscle tissue. As to the kind of experiment: Insulin signaling in muscle of lipid-infused mice (immunoblotting). Conditions: TG lipid infusion. The class given is in vivo.
Source text: as §1, §2, §3, §4

On to `CCCCCCCCCCCCCCCC(=O)OCC(COC(=O)CCCCCCCCCCCCCCC)OC(=O)CCCCCCCCCCCCCCC` [TG-palmitate, reference compound], for which, in experiment [1], the “SCD-1 expression in liver” value was “increase”, the “fatty acid elongase 6 (ELOVL6) expression in liver” value is on record as “increase” and the “fatty acid synthase (FAS) expression in liver” value was “increase”. Further, the “proximal insulin-signaling pathway in liver (insulin receptor, IRS-1, IRS-2, AKT)” value in experiment [2] was “suppressed”.

As for `CCCCCC/C=C\CCCCCCCC(=O)OCC(COC(=O)CCCCCCC/C=C\CCCCCC)OC(=O)CCCCCCC/C=C\CCCCCC` [TG-palmitoleate], in experiment [1], the “SCD-1 expression in liver” value was “substantial decrease”, the “fatty acid elongase 6 (ELOVL6) expression in liver” value was “substantial decrease” and the “fatty acid synthase (FAS) expression in liver” value was “substantial decrease”. Besides, the “proximal insulin-signaling pathway in liver (insulin receptor, IRS-1, IRS-2, AKT)” value in experiment [2] is listed as “strongly potentiated”.

Consider `CCc1c(-c2ccccc2)c(-c2ccccc2)nn1-c1ccccc1-c1cccc(OCC(=O)O)c1` [aP2 inhibitor], for which the “lipogenic gene expression in adipose tissues” value on aP2 is given as “increased”.

Take `CCCCC/C=C\C/C=C\C/C=C\C/C=C\CCCC(=O)O` [arachidonic acid, reference compound]: in the experiment with SCD-1 promoter, the “SCD-1 promoter-driven reporter activity” value is “suppressed”.

As to `CCCCCCCCCCCCCCCC(=O)O` [palmitate, reference compound], in experiment [3], the “insulin receptor signaling in muscle” value is reported as “impaired”.

Consider C16:1n7-palmitoleate, for which the “insulin receptor signaling in muscle” value in experiment [3] is given as “enhanced”.
